Drawing on patent US9630977B2, “Cephalosporin derivatives and pharmaceutical compositions thereof” (Legochem Biosciences, Inc., priority 2011, dated 2017), this text covers MIC90 for 3 molecules.

Converted amounts (≈) assume the structure as drawn. Read-outs that look alike come from different tables or passages of the source.

Experiment in all cases: In vitro antibacterial activity test (broth microdilution)
Assay type in all cases: cell-based
For orientation: Dilution methods test growth across graded concentrations, often in twofold steps.

In one assay the test system is A. baumannii 46. On the procedure: (§1) To evaluate antibacterial activity of each of the compounds of Examples 1 to 68, in vitro antibacterial activity test was performed.
(§2) The in vitro antibacterial activity was evaluated by measuring MIC90 (ug/mL) of each of the compounds of Examples 1 to 68, which is defined as the lowest concentration of an antibiotic that will inhibit the visible growth of 90% of microorganisms after incubation as compared with a control group to which the antibiotic is not treated. MIC90 values were measured by the broth microdilution method developed by the Clinical and Laboratory Standards Institute (CLSI) (see CLSI M7-A5, Methods for Dilution Antimicrobial Susceptibility Test for Bacteria that Grow Aerobically-Fifth Edition (2000): CLSI, Villanova, Pa.).
(§3) In vitro antibacterial activity was measured with respect to the following 19 clinical isolates: M. catarrhalis; P. aeruginosa (5 strains); K. pneumoniae (6 strains); A. baumannii (3 strains); E. coli (2 strains); A. calcoaceticus; and E. cloacae.
(§4) Test compounds each (the cephalosporin derivative compounds prepared in Examples 1 to 68) were dissolved in DMSO at the concentration of 10,240 ug/mL, were diluted by two fold with DMSO, and then were diluted by twenty fold with sterilized distilled water. The final concentration in the antibacterial activity test was in the range of […] to 128 ug/mL, and the final concentration of DMSO used as an adjuvant was 2.5% (V/V).

In a further assay the test system is A. baumannii 49. On the procedure: as §1, §2, §3, §4
The subject of the next assay is A. baumannii 52. Particulars: Acinetobacter baumannii. The protocol:
as §1, §2, §3, §4

Assay [1] has as its system A. calcoaceticus ATCC15473. Particulars: Acinetobacter calcoaceticus. The protocol: as §1, §2, §3, §4
The subject of another assay is E. cloacae β19. Particulars: Enterobacter cloacae. The protocol: as §1, §2, §3, §4
The next assay deals with E. coli AG100. Particulars: Escherichia coli. On the procedure: as §1, §2, §3, §4
A further assay relates to E. coli β4. Particulars: Escherichia coli. On the procedure:
as §1, §2, §3, §4

The test system of another assay is K. pneumoniae 2011E. Particulars: Klebsiella pneumoniae, 2011E. The protocol: as §1, §2, §3, §4
The test system of the next assay is K. pneumoniae β10. Conditions: Klebsiella pneumoniae. On the procedure: as §1, §2, §3, §4
Another assay concerns K. pneumoniae β11. Particulars: Klebsiella pneumoniae. The protocol:
as §1, §2, §3, §4

The test system of a further assay is K. pneumoniae β13. Particulars: Klebsiella pneumoniae. The protocol:
as §1, §2, §3, §4

Another assay has as its system K. pneumoniae β14. Particulars: Klebsiella pneumoniae. On the procedure:
as §1, §2, §3, §4

Another assay concerns K. pneumoniae β9. Conditions: Klebsiella pneumoniae. On the procedure: as §1, §2, §3, §4
A further assay has as its system M. catarrhalis 2524. Particulars: Moraxella catarrhalis. The protocol: as §1, §2, §3, §4
Another assay relates to P. aeruginosa 1912E. Conditions: Pseudomonas aeruginosa, 1912E. The protocol: as §1, §2, §3, §4
Another assay concerns P. aeruginosa 37. Conditions: Pseudomonas aeruginosa, 37, P. aeruginosa 37. On the procedure: as §1, §2, §3, §4
The subject of the next assay is P. aeruginosa 40. The protocol: as §1, §2, §3, §4
The subject of the next assay is P. aeruginosa 43. Particulars: Pseudomonas aeruginosa. On the procedure: as §1, §2, §3, §4
Another assay has as its system P. aeruginosa 6065Y. Conditions: Pseudomonas aeruginosa. The protocol:
as §1, §2, §3, §4

Where [2] appears, read: Acinetobacter baumannii, A. baumannii 46, read-out: MIC90.
The mark [3] stands for this setting: Acinetobacter baumannii, A. baumannii 49, read-out: MIC90.
Setting [4] is: A. baumannii 52, read-out: MIC90.
Setting [5] is: A. calcoaceticus ATCC15473, read-out: MIC90.
Setting [6] is: AG100, E. coli AG100, read-out: MIC90.
[7] abbreviates: K. pneumoniae 2011E, read-out: MIC90.
Setting [8] is: K. pneumoniae β10, read-out: MIC90.
Setting [9] is: K. pneumoniae β11, read-out: MIC90.
[10] abbreviates: K. pneumoniae β13, read-out: MIC90.
Setting [11] is: K. pneumoniae β9, read-out: MIC90.
[12] abbreviates: M. catarrhalis 2524, read-out: MIC90.
Setting [13] is: Pseudomonas aeruginosa, 40, P. aeruginosa 40, read-out: MIC90.
The mark [14] stands for this setting: P. aeruginosa 43, read-out: MIC90.

For orientation: MIC90 means the lowest concentration that inhibits either 90% of growth or 90% of the strains tested, depending on the study. Turning to `CC(C)(O/N=C(\C(=O)N[C@@H]1C(=O)N2C(C(=O)[O-])=C(C[n+]3cnc(N)c(NCCNC(=O)c4cc(=O)c(O)cn4O)c3)CSC12)c1csc(N)n1)C(=O)O` (stereo partly drawn) [Compound 1], the MIC90 was 4 µg/mL (≈ 5.17 µM) with A. baumannii 46 (setting [2]); 16 µg/mL (≈ 20.7 µM) in the assay with A. baumannii 49 (setting [3]); 32 µg/mL (≈ 41.4 µM) in the assay on A. baumannii 52 (setting [4]); 0.5 µg/mL (≈ 0.646 µM) in [1] (setting [5]); 2 µg/mL (≈ 2.58 µM) in the assay on E. cloacae β19 (read-out: MIC90); less than 0.0625 µg/mL with E. coli AG100 (setting [6]). Also, the MIC90 worked out at 2 µg/mL (≈ 2.58 µM) in the assay on E. coli β4 (read-out: MIC90); 2 µg/mL (≈ 2.58 µM) in the assay on K. pneumoniae 2011E (setting [7]); 0.125 µg/mL (≈ 0.162 µM) in the assay with K. pneumoniae β10 (setting [8]); 128 µg/mL (≈ 165 µM) with K. pneumoniae β11 (setting [9]); 0.5 µg/mL (≈ 0.646 µM) in the assay on K. pneumoniae β13 (setting [10]); 128 µg/mL (≈ 165 µM) in the assay with K. pneumoniae β14 (read-out: MIC90). Further, the MIC90 came out at 4 µg/mL (≈ 5.17 µM) with K. pneumoniae β9 (setting [11]); 1 µg/mL (≈ 1.29 µM) in the assay on M. catarrhalis 2524 (setting [12]); 0.25 µg/mL (≈ 0.323 µM) in the assay with P. aeruginosa 1912E (read-out: MIC90); 0.5 µg/mL (≈ 0.646 µM) in the assay with P. aeruginosa 37 (read-out: MIC90); 0.25 µg/mL (≈ 0.323 µM) with P. aeruginosa 40 (setting [13]); 0.25 µg/mL (≈ 0.323 µM) in the assay on P. aeruginosa 43 (setting [14]). Also, in the assay on P. aeruginosa 6065Y (read-out: MIC90), the MIC90 was determined as 1 µg/mL (≈ 1.29 µM).

Consider `CC(C)(O/N=C(\C(=O)N[C@@H]1C(=O)N2C(C(=O)[O-])=C(C[n+]3cnc(NCCN)c(NCCNC(=O)c4cc(=O)c(O)cn4O)c3)CSC12)c1csc(N)n1)C(=O)O` (stereo partly drawn) [Compound 5], for which the MIC90 is 16 µg/mL (≈ 19.6 µM) in the assay with A. baumannii 46 (Acinetobacter baumannii, 46, A. baumannii 46); greater than 128 µg/mL with A. baumannii 49 (Acinetobacter baumannii, 49, A. baumannii 49); greater than 128 µg/mL against A. baumannii 52 (52); 2 µg/mL (≈ 2.45 µM) in assay [1] (ATCC15473, A. calcoaceticus ATCC15473); 0.5 µg/mL (≈ 0.612 µM) in the assay on E. cloacae β19; less than 0.0625 µg/mL against E. coli AG100 (AG100). Moreover, the MIC90 with E. coli β4 turned out to be 0.5 µg/mL (≈ 0.612 µM); in the assay with K. pneumoniae 2011E, 2 µg/mL (≈ 2.45 µM); in the assay on K. pneumoniae β10, 1 µg/mL (≈ 1.22 µM); against K. pneumoniae β11, 2 µg/mL (≈ 2.45 µM); in the assay with K. pneumoniae β13, 0.5 µg/mL (≈ 0.612 µM); against K. pneumoniae β14, 8 µg/mL (≈ 9.79 µM). For the same molecule, the MIC90 in the assay on K. pneumoniae β9 was less than 0.0625 µg/mL; in the assay on M. catarrhalis 2524 (2524), 0.25 µg/mL (≈ 0.306 µM); against P. aeruginosa 1912E it was 1 µg/mL (≈ 1.22 µM); in the assay on P. aeruginosa 37 it was 1 µg/mL (≈ 1.22 µM); against P. aeruginosa 40 (Pseudomonas aeruginosa, 40) it was 1 µg/mL (≈ 1.22 µM); in the assay on P. aeruginosa 43 (43), 0.25 µg/mL (≈ 0.306 µM). The same molecule showed an MIC90 against P. aeruginosa 6065Y (6065Y) of 4 µg/mL (≈ 4.9 µM).

In the case of `CC(C)(O/N=C(\C(=O)N[C@@H]1C(=O)N2C(C(=O)[O-])=C(C[n+]3cnc(NCCNC(=O)c4cc(=O)c(O)cn4O)c(N)c3)CSC12)c1csc(N)n1)C(=O)O` (stereo partly drawn) [Compound 6], the MIC90 in the assay on A. baumannii 46 (setting [2]) was 32 µg/mL (≈ 41.4 µM); in the assay with A. baumannii 49 (setting [3]), greater than 128 µg/mL; in the assay on A. baumannii 52 (setting [4]) it was greater than 128 µg/mL; in assay [1] (setting [5]), 2 µg/mL (≈ 2.58 µM); in the assay on E. cloacae β19 (read-out: MIC90), 2 µg/mL (≈ 2.58 µM); with E. coli AG100 (setting [6]), 0.25 µg/mL (≈ 0.323 µM). Besides, the MIC90 amounted to 4 µg/mL (≈ 5.17 µM) in the assay on E. coli β4 (read-out: MIC90); 4 µg/mL (≈ 5.17 µM) in the assay on K. pneumoniae 2011E (setting [7]); 0.5 µg/mL (≈ 0.646 µM) with K. pneumoniae β10 (setting [8]); 8 µg/mL (≈ 10.3 µM) with K. pneumoniae β11 (setting [9]); 0.125 µg/mL (≈ 0.162 µM) in the assay with K. pneumoniae β13 (setting [10]); 16 µg/mL (≈ 20.7 µM) in the assay with K. pneumoniae β14 (read-out: MIC90). For the same molecule, the MIC90 is 2 µg/mL (≈ 2.58 µM) with K. pneumoniae β9 (setting [11]); 2 µg/mL (≈ 2.58 µM) in the assay with M. catarrhalis 2524 (setting [12]); 0.5 µg/mL (≈ 0.646 µM) with P. aeruginosa 1912E (read-out: MIC90); 0.5 µg/mL (≈ 0.646 µM) with P. aeruginosa 37 (read-out: MIC90); 0.5 µg/mL (≈ 0.646 µM) in the assay with P. aeruginosa 40 (setting [13]); 0.5 µg/mL (≈ 0.646 µM) in the assay with P. aeruginosa 43 (setting [14]). Also, the MIC90 with P. aeruginosa 6065Y (read-out: MIC90) was determined as 2 µg/mL (≈ 2.58 µM).
